{"source": "patent US10428060B2", "about": "“PI-kinase inhibitors with anti-infective activity” (The Board of Trustees of the Leland Stanford Junior …, priority 2011, dated 2019)", "key": {"PI4KIIIA": {"target": "T1, PI4KIIIA (Homo sapiens, UniProt P42356)", "T1 construct": "made in house; host or cells: COS-7 cells, transient transfection, anti-HA immunoprecipitate on protein G Sepharose beads", "T1 sequence (P42356 whole entry)": "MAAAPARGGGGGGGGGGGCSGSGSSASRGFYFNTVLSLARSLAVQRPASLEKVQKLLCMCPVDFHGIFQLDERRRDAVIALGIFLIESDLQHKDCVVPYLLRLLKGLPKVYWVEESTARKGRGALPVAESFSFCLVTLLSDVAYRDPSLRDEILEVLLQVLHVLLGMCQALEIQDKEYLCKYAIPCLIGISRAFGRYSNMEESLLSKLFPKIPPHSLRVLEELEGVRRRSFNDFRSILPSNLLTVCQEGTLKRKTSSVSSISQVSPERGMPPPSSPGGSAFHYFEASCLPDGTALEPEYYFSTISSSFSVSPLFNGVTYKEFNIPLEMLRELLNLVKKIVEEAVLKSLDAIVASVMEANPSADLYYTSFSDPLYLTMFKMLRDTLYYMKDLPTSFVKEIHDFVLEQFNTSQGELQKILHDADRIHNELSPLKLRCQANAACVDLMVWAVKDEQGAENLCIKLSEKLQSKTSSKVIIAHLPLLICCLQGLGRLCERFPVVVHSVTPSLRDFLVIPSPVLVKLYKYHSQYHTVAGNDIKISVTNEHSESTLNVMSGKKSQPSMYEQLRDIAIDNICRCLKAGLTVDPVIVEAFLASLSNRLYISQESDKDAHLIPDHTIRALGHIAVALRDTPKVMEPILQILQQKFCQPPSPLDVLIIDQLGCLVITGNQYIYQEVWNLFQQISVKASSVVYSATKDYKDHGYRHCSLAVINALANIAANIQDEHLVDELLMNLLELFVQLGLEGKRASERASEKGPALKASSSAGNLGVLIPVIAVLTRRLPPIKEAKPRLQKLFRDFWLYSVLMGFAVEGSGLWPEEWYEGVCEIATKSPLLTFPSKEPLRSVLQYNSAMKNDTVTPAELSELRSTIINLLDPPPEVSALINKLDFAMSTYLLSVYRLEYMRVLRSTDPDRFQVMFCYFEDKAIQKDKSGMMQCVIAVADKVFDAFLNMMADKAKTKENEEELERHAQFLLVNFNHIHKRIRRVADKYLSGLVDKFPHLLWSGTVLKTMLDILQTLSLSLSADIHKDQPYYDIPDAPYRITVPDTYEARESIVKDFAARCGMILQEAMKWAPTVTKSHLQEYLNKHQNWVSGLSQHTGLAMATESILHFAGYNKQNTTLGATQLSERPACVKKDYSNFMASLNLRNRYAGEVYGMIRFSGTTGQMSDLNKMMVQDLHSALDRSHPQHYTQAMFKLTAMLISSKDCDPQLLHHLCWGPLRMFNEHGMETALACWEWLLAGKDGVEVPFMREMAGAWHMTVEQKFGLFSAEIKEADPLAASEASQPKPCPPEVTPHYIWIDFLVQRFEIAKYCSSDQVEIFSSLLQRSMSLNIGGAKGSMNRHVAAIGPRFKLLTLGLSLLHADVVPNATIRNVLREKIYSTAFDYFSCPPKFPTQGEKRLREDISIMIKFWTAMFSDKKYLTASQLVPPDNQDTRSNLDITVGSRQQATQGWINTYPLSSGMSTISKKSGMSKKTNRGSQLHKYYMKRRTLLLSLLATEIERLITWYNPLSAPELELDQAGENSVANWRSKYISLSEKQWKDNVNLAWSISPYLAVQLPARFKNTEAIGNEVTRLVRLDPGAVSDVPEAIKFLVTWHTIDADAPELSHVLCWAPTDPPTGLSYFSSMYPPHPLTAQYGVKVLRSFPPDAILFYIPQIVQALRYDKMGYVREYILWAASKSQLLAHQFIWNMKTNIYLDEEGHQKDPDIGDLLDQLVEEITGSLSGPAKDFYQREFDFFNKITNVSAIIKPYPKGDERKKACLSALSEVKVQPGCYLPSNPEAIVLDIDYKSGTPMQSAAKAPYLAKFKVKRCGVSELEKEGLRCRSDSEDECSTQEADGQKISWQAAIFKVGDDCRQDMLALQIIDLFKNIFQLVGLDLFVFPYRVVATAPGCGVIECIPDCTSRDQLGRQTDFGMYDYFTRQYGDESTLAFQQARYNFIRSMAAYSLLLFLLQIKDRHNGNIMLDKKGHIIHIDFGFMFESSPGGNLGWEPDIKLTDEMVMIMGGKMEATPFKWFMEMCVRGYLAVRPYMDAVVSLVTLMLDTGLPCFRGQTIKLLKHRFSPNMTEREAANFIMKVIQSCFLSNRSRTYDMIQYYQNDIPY", "experiment": "PI4KIIIA kinase assay", "format": "biochemical", "experimental": "In the assays described here, p110α-p85 complex and p110γ were acquired from Millipore. Assays were performed with Lα-phosphatidylinositol (Avanti) as described in Knight et al. Nat Protoc. 2007; 2 (10):2459-66. Inhibitor series were prepared 10% DMSO as 5× stocks for the assay. Assays of HsVps34 were performed as described in Knight et al, except that the final assay buffer composition used was changed to 20 mM HEPES 7.5, 100 mM NaCl, 3 mM MgCl, 1 mg/mL PI and 44 nM hvps34 was used in the assay. […] COS-7 cells were cultured in 10 cm dishes and transfected at 70% confluence with 10 μg of plasmid DNA (HA-tagged bovine PI4KIIIβ, HA-tagged human PI4KIIIα) using Lipofectamine 2000 and 5 ml Opti-MEM following the manufacturer's instructions. After 5 hours the transfection medium was replaced with 10 ml complete DMEM. 36 hrs post transfection, cells were washed once with 5 ml PBS (pH 7.4) and lysed in 1 ml of lysis buffer (1) on ice. Lysates were collected by scraping and after 15 min they were centrifuged at 13,000 rpm for 10 min. To the lysates was added 200 μl of protein G Sepharose 4 fast flow beads that were prewashed with PBS and lysis buffer and 2 μg of anti-HA antibody. The tubes were then incubated overnight at 4 degrees C. in a tube rotator. The Sepharose beads in the lysate were washed twice with 150 mM NaCl in RIPA buffer, twice with RIPA buffer and once with kinase buffer (50 mM Tris/HCl, pH 7.5, 20 mM MgCl2, 1 mM EGTA, 1 mM PtdIns, 0.4% Triton X-100, 0.5 mg/mL BSA) and finally the beads were resuspended in 200 μL kinase buffer. Kinase reactions were run in a mixture of 45 μL of PI buffer (1 mM PI in kinase buffer), 10 μL of immunoprecipitated beads, 2 µL of inhibitors (dissolved and diluted in DMSO) or DMSO and 5 μL of [γ-^32P]-ATP (1 mM and 2 μCi/tube). The immunoprecipitates in PI buffer were pre-incubated with the drugs for 20 min prior the initiation of kinase reaction by adding ATP and the reactions were carried out for 30 min in 15 ml polypropolyne tubes. […] Samples were counted in a scintillation beta counter after adding 5 ml of Instafluor (Perkin-Elmer). […]"}, "PI4KIIIB": {"target": "T2, PI4KIIIB (Bos taurus, UniProt O02810)", "T2 construct": "made in house; host or cells: COS-7 cells, transient transfection, anti-HA immunoprecipitate on protein G Sepharose beads", "T2 sequence (O02810 whole entry)": "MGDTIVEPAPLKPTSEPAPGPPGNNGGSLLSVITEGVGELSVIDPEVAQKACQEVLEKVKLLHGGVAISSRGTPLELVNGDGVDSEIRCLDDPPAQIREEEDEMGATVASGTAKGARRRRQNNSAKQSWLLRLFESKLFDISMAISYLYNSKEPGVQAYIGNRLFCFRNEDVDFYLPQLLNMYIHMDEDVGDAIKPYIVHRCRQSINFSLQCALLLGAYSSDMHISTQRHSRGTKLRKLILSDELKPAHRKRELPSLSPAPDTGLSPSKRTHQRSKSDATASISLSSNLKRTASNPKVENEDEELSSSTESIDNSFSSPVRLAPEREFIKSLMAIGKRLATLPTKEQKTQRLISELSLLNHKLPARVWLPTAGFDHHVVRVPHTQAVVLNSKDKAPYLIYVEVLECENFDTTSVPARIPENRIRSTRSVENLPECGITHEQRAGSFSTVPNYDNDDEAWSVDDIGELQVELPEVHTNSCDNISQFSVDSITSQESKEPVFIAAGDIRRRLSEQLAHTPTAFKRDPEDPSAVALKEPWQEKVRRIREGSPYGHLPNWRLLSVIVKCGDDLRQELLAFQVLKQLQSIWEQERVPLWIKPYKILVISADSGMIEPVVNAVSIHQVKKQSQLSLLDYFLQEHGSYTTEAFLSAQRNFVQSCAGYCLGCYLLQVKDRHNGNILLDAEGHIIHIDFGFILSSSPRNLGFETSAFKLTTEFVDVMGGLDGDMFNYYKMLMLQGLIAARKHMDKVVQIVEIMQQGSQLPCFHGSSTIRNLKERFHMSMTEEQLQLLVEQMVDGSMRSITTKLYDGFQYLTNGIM", "experiment": "PI4KIIIB kinase assay", "format": "biochemical, bovine"}, "PI3K p110g": {"target": "T3, PI3K p110g (Homo sapiens, UniProt P48736)", "T3 construct": "purchased Millipore", "T3 sequence (P48736 whole entry)": "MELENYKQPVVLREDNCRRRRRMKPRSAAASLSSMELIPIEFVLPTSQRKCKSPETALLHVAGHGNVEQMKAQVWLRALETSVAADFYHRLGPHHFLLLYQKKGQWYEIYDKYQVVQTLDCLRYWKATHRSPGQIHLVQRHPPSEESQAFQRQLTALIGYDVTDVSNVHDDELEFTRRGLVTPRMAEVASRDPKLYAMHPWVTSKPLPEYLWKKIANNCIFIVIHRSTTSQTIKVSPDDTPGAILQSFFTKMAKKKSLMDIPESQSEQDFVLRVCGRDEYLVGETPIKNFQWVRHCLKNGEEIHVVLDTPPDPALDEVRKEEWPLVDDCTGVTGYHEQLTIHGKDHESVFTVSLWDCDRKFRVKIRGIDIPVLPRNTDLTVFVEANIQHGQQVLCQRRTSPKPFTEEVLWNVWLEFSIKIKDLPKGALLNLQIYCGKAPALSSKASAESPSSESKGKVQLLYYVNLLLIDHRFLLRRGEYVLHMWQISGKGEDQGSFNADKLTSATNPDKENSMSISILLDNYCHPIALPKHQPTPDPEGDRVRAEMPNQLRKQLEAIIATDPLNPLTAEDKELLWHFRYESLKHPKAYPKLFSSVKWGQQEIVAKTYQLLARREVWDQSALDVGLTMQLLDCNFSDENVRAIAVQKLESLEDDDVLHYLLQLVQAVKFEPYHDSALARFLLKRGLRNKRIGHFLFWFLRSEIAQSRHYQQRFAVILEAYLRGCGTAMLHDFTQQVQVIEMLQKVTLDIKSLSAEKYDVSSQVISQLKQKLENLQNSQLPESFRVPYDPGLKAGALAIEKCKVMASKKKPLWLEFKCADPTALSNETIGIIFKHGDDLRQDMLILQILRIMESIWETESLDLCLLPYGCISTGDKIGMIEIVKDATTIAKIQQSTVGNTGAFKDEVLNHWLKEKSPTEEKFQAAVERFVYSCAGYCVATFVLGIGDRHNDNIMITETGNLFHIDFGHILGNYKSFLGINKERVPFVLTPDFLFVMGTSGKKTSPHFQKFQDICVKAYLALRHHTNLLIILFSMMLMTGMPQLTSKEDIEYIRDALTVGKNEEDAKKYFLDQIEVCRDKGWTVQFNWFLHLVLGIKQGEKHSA", "experiment": "PI3K p110g kinase assay", "format": "biochemical"}, "HCV genotype 2a": {"tested_on": "HCV genotype 2a", "experiment": "microbe, parasite or virus in culture", "format": "cell-based", "settings": "Hepatitis C virus, Huh7.5, read-out: HCV2a EC50"}, "HRV": {"tested_on": "HRV", "experiment": "Rhinovirus antiviral assay", "format": "cell-based", "settings": "Human rhinovirus sp."}}, "note": "pEC50, pIC50: −log10 of the molar value.", "data": [{"compound": "COc1ncc(-c2sc(NC(=O)CC3CCOCC3)nc2C)cc1S(=O)(=O)NC1CCCC(O)C1", "note": "(centres unmarked) [Compound S-263]", "values": [{"measurement": "pIC50", "setting": "PI4KIIIA", "value": "> 7.00"}, {"measurement": "pIC50", "setting": "PI4KIIIB", "value": "> 7.00"}, {"measurement": "pIC50", "setting": "PI3K p110g", "value": "5.00 to 6.00"}, {"measurement": "pEC50", "setting": "HCV genotype 2a", "value": "7.00 to 9.00"}, {"measurement": "pEC50", "setting": "HRV", "value": "5.00 to 6.00"}]}]}
